Assay results as given in ChEMBL document CHEMBL4507303, “Data for DCP probe TP-004” (2021).

How the values were obtained:
[1] = test system: Tyrosine-protein kinase ABL1 (Homo sapiens), P00519 [T315I]; settings: Compound concentration 1000.0 nM
[2] = target: Activin receptor type-1B (Homo sapiens) (UniProt P36896); settings: Compound concentration 1000.0 nM
[3] = target: 5'-AMP-activated protein kinase catalytic subunit alpha-1 (Homo sapiens) (UniProt Q13131); settings: Compound concentration 1000.0 nM
[4] = target: Ankyrin repeat and protein kinase domain-containing protein 1 (Homo sapiens) (UniProt Q8NFD2); settings: Compound concentration 1000.0 nM
[5] = target: Serine/threonine-protein kinase BRSK1 (Homo sapiens) (UniProt Q8TDC3); settings: Compound concentration 1000.0 nM
[6] = target: Calcium/calmodulin-dependent protein kinase type 1G (Homo sapiens) (UniProt Q96NX5); settings: Compound concentration 1000.0 nM
[7] = target: Calcium/calmodulin-dependent protein kinase type II subunit gamma (Homo sapiens) (UniProt Q13555); settings: Compound concentration 1000.0 nM
[8] = target: Casein kinase I isoform alpha (Homo sapiens) (UniProt P48729); settings: Compound concentration 1000.0 nM
[9] = target: Casein kinase I isoform alpha-like (Homo sapiens) (UniProt Q8N752); settings: Compound concentration 1000.0 nM
[10] = target: Megakaryocyte-associated tyrosine-protein kinase (Homo sapiens) (UniProt P42679); settings: Compound concentration 1000.0 nM
[11] = test system: Epidermal growth factor receptor (Homo sapiens), P00533 [UNDEFINED MUTATION]; settings: Compound concentration 1000.0 nM
[12] = target: Ephrin type-B receptor 6 (Homo sapiens) (UniProt O15197); settings: Compound concentration 1000.0 nM
[13] = target: Mitogen-activated protein kinase 4 (Homo sapiens) (UniProt P31152); settings: Compound concentration 1000.0 nM
[14] = target: Mitogen-activated protein kinase 7 (Homo sapiens) (UniProt Q13164); settings: Compound concentration 1000.0 nM
[15] = target: Serine/threonine-protein kinase/endoribonuclease IRE1 (Homo sapiens) (UniProt O75460); settings: Compound concentration 1000.0 nM
[16] = target: Focal adhesion kinase 1 (Homo sapiens) (UniProt Q05397); settings: Compound concentration 1000.0 nM
[17] = target: Fibroblast growth factor receptor 1 (Homo sapiens) (UniProt P11362); settings: Compound concentration 1000.0 nM
[18] = target: Fibroblast growth factor receptor 3 (Homo sapiens) (UniProt P22607); settings: Compound concentration 1000.0 nM
[19] = target: Tyrosine-protein kinase FRK (Homo sapiens) (UniProt P42685); settings: Compound concentration 1000.0 nM
[20] = test system: eIF-2-alpha kinase GCN2 (Homo sapiens), Q9P2K8 [S808G]; settings: Compound concentration 1000.0 nM
[21] = target: Homeodomain-interacting protein kinase 4 (Homo sapiens) (UniProt Q8NE63); settings: Compound concentration 1000.0 nM
[22] = target: Mast/stem cell growth factor receptor Kit (Homo sapiens) (UniProt P10721); settings: Compound concentration 1000.0 nM
[23] = target: LIM domain kinase 1 (Homo sapiens) (UniProt P53667); settings: Compound concentration 1000.0 nM
[24] = target: LIM domain kinase 2 (Homo sapiens) (UniProt P53671); settings: Compound concentration 1000.0 nM
[25] = target: Serine/threonine-protein kinase MARK1 (Homo sapiens) (UniProt Q9P0L2); settings: Compound concentration 1000.0 nM
[26] = target: Serine/threonine-protein kinase Nek11 (Homo sapiens) (UniProt Q8NG66); settings: Compound concentration 1000.0 nM
[27] = target: Serine/threonine-protein kinase Nek6 (Homo sapiens) (UniProt Q9HC98); settings: Compound concentration 1000.0 nM
[28] = target: Mitogen-activated protein kinase kinase kinase 14 (Homo sapiens) (UniProt Q99558); settings: Compound concentration 1000.0 nM
[29] = target: Mitogen-activated protein kinase 11 (Homo sapiens) (UniProt Q15759); settings: Compound concentration 1000.0 nM
[30] = target: Serine/threonine-protein kinase PAK 3 (Homo sapiens) (UniProt O75914); settings: Compound concentration 1000.0 nM
[31] = target: Cyclin-dependent kinase 16 (Homo sapiens) (UniProt Q00536); settings: Compound concentration 1000.0 nM
[32] = target: Phosphatidylinositol 4,5-bisphosphate 3-kinase catalytic subunit beta isoform (Homo sapiens) (UniProt P42338); settings: Compound concentration 1000.0 nM
[33] = target: Serine/threonine-protein kinase SIK3 (Homo sapiens) (UniProt Q9Y2K2); settings: Compound concentration 1000.0 nM
[34] = target: Rho-associated protein kinase 2 (Homo sapiens) (UniProt O75116); settings: Compound concentration 1000.0 nM
[35] = target: Ribosomal protein S6 kinase beta-1 (Homo sapiens) (UniProt P23443); settings: Compound concentration 1000.0 nM
[36] = target: Serine/threonine-protein kinase 16 (Homo sapiens) (UniProt O75716); settings: Compound concentration 1000.0 nM
[37] = target: Tyrosine-protein kinase receptor Tie-1 (Homo sapiens) (UniProt P35590); settings: Compound concentration 1000.0 nM
[38] = target: Serine/threonine-protein kinase tousled-like 2 (Homo sapiens) (UniProt Q86UE8); settings: Compound concentration 1000.0 nM
[39] = target: Non-receptor tyrosine-protein kinase TNK1 (Homo sapiens) (UniProt Q13470); settings: Compound concentration 1000.0 nM
[40] = target: High affinity nerve growth factor receptor (Homo sapiens) (UniProt P04629); settings: Compound concentration 1000.0 nM
[41] = target: Tyrosine-protein kinase TXK (Homo sapiens) (UniProt P42681); settings: Compound concentration 1000.0 nM
[42] = target: Serine/threonine-protein kinase 32A (Homo sapiens) (UniProt Q8WU08); settings: Compound concentration 1000.0 nM
[43] = target: 5-hydroxytryptamine receptor 2B (Homo sapiens) (UniProt P41595); settings: Compound concentration 10.0 uM
[44] = target: D(2) dopamine receptor (Homo sapiens) (UniProt P14416); settings: Compound concentration 10.0 uM
[45] = target: Alpha-2A adrenergic receptor (Homo sapiens) (UniProt P08913); settings: Compound concentration 10.0 uM

Chain of Homeodomain-interacting protein kinase 4 (Homo sapiens) (Q8NE63 whole entry): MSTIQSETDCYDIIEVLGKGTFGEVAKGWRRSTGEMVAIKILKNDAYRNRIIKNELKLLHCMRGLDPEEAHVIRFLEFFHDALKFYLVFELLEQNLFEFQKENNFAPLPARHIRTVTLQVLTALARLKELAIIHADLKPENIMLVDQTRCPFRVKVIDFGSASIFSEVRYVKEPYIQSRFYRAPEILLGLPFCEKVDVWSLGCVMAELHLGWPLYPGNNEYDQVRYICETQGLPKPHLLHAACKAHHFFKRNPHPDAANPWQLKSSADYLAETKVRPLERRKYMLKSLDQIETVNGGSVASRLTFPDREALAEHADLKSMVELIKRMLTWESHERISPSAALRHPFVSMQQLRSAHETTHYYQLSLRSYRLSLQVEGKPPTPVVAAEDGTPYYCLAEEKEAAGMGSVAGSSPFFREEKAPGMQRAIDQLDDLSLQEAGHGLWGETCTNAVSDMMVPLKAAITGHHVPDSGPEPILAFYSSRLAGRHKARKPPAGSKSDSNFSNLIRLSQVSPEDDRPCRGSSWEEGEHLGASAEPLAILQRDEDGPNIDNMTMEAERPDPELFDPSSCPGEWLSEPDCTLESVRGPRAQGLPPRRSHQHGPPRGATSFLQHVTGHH
Chain of Serine/threonine-protein kinase SIK3 (Homo sapiens) (Q9Y2K2 whole entry, looked up): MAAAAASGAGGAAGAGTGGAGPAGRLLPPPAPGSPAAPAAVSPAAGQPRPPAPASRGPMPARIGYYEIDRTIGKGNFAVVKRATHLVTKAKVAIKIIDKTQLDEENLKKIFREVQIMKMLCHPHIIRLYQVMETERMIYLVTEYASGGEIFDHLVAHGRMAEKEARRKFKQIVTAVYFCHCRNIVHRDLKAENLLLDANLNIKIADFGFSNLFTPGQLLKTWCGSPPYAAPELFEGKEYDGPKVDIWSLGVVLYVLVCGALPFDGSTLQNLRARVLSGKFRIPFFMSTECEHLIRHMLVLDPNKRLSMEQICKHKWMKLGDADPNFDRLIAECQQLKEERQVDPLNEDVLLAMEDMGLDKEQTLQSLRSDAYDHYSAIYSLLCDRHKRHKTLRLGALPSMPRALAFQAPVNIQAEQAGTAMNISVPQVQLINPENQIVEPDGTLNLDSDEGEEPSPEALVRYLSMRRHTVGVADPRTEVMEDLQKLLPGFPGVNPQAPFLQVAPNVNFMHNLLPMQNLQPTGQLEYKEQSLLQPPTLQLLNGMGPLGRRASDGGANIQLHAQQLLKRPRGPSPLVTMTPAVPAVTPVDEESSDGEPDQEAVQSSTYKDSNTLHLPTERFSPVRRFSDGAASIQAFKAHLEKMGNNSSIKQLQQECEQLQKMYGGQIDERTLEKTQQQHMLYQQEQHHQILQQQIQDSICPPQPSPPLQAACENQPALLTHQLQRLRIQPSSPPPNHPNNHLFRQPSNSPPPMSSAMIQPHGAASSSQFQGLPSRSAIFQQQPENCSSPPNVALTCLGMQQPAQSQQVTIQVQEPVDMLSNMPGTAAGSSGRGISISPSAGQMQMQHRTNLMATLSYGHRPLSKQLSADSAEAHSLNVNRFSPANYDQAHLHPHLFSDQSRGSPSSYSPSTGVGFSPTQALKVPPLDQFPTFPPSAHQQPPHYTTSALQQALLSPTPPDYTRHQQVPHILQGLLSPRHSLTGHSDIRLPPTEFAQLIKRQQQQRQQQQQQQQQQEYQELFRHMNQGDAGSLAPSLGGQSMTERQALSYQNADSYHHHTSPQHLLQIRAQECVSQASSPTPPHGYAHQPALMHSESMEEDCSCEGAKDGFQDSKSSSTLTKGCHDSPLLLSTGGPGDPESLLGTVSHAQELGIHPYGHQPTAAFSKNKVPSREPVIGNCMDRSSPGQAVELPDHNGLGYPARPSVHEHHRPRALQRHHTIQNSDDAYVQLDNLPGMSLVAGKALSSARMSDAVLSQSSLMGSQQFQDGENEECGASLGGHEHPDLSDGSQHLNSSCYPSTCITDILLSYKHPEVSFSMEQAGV
Chain of Epidermal growth factor receptor (Homo sapiens), P00533 [UNDEFINED MUTATION] (P00533 whole entry, looked up, change not shown): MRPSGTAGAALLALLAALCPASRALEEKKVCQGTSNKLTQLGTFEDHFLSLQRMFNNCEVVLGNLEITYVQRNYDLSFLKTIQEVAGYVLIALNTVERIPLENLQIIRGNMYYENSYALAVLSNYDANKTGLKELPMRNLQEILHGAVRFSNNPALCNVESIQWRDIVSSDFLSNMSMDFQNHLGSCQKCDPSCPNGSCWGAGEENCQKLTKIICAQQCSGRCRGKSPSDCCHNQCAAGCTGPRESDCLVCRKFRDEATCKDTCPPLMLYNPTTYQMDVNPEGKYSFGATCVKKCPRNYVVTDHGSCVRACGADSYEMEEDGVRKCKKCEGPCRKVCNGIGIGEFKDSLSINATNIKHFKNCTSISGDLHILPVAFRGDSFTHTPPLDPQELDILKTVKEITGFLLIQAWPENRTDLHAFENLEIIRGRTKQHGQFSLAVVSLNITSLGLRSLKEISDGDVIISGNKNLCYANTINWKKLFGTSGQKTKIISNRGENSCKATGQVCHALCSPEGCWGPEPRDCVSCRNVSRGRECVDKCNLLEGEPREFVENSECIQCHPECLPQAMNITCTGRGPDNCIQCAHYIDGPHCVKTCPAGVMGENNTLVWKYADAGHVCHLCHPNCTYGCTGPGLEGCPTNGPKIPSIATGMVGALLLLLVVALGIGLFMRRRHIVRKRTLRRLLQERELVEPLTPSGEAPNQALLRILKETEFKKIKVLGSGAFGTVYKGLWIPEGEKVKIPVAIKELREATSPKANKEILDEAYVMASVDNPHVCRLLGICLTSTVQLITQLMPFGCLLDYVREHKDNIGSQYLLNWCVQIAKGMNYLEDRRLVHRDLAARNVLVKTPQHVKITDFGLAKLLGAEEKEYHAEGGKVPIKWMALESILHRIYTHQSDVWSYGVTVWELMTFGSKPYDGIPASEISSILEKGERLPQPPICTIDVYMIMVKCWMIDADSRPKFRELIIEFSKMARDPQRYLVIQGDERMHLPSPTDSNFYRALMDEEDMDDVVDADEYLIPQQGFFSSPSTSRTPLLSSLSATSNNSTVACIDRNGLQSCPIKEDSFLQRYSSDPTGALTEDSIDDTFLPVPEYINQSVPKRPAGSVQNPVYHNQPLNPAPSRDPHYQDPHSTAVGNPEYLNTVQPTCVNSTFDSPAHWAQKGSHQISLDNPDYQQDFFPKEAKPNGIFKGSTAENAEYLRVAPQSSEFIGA
Chain of Mitogen-activated protein kinase kinase kinase 14 (Homo sapiens) (Q99558 whole entry, looked up): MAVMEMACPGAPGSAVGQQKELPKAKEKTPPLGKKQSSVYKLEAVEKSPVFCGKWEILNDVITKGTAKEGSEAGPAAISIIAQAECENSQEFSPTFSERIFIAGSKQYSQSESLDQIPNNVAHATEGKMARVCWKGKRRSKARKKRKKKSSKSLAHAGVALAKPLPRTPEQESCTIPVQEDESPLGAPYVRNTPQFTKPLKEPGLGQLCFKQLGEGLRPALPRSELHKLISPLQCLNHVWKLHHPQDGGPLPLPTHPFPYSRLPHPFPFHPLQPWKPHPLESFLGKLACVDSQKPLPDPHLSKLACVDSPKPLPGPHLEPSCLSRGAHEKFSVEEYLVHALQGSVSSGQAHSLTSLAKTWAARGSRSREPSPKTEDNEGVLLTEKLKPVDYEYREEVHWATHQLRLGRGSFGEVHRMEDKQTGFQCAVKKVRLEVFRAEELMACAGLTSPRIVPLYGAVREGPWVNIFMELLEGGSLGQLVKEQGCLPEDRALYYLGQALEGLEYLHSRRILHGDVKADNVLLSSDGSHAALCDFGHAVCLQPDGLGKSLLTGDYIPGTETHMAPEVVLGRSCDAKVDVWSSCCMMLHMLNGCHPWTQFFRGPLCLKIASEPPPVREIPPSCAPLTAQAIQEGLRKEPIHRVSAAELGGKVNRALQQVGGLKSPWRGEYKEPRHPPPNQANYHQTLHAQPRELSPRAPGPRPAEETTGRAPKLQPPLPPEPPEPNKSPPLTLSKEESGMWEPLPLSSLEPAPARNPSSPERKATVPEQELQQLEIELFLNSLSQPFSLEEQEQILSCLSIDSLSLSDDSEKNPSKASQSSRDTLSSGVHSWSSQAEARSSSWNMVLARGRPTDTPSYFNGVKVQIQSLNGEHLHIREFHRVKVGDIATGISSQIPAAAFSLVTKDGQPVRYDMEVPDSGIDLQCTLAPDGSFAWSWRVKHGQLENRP
Chain of Megakaryocyte-associated tyrosine-protein kinase (Homo sapiens) (P42679 whole entry): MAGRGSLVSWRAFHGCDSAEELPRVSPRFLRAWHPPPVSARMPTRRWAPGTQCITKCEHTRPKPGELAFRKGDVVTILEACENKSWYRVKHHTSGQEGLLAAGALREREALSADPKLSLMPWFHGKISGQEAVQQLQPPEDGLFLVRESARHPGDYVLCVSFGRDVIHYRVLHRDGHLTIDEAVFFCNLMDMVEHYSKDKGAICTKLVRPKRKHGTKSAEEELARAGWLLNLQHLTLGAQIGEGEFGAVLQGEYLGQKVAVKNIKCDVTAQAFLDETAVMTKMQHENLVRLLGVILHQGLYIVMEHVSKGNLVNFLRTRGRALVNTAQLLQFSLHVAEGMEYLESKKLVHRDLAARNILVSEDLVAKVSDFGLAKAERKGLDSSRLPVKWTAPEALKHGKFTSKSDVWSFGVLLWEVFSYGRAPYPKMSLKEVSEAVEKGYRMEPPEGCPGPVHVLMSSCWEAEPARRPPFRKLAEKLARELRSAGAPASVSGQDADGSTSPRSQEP
Chain of D(2) dopamine receptor (Homo sapiens) (P14416 whole entry): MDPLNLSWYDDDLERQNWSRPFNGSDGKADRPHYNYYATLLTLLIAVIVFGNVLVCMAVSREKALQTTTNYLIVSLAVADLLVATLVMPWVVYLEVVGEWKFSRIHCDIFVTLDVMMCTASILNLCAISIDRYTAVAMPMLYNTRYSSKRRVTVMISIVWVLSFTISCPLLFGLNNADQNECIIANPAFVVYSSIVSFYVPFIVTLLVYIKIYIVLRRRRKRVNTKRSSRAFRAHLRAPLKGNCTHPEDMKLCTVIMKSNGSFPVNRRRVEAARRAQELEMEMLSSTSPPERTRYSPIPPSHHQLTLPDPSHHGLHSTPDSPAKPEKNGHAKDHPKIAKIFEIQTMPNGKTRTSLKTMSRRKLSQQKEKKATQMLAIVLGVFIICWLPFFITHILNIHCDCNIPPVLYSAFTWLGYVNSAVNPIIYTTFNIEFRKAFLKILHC

SMILES: Cc1nc(N2CC[C@@H](O)C2)ncc1-c1cc(C(F)(F)F)cc2[nH]ncc12 [TP-004]
- residual activity [1]: 69%
- residual activity [2]: 100%
- residual activity [3]: 89%
- residual activity [4]: 85%
- residual activity [5]: 100%
- residual activity [6]: 100%
- residual activity [7]: 100%
- residual activity [8]: 96%
- residual activity [9]: 93%
- residual activity [10]: 86%
- residual activity [11]: 64%
- residual activity [12]: 36%
- residual activity [13]: 90%
- residual activity [14]: 83%
- residual activity [15]: 86%
- residual activity [16]: 86%
- residual activity [17]: 90%
- residual activity [18]: 100%
- residual activity [19]: 98%
- residual activity [20]: 76%
- residual activity [21]: 82%
- residual activity [22]: 89%
- residual activity [23]: 85%
- residual activity [24]: 100%
- residual activity [25]: 74%
- residual activity [26]: 87%
- residual activity [27]: 89%
- residual activity [28]: 68%
- residual activity [29]: 100%
- residual activity [30]: 72%
- residual activity [31]: 75%
- residual activity [32]: 60%
- residual activity [33]: 53%
- residual activity [34]: 77%
- residual activity [35]: 90%
- residual activity [36]: 92%
- residual activity [37]: 91%
- residual activity [38]: 100%
- residual activity [39]: 100%
- residual activity [40]: 56%
- residual activity [41]: 100%
- residual activity [42]: 85%
- inhibition [43]: -1.83%
- inhibition [44]: 12.6%
- inhibition [45]: 10.6%
